{
  "source": "patent US6479474B2",
  "about": "“Dietary calcium as a supplement to vitamin D compound treatment of multiple sclerosis” (Wisconsin Alumni Research Foundation, priority 1999, dated 2002)",
  "key": {"[1]": {"system": "experimental autoimmune encephalomyelitis (EAE) in B10.PL mice", "conditions": "literature (Cantorna 1996; Lemire and Archer 1991); cited from earlier work"}, "transplant rejection": {"system": "transplant rejection", "conditions": "literature (Bouillon 1995; Hullett 1998); cited from earlier work"}, "IL-4 mRNA [2]": {"system": "IL-4 mRNA", "test": "IL-4 transcript analysis in LN by quantitative competitive PCR", "assay_type": "in vivo", "conditions": "male mice with EAE, 100 ng daily", "experimental": "(§1) Transcript analysis by quantitative competitive PCR. Cells for mRNA analysis were dissolved in acid guanidinium thiocyanate, and total RNA was isolated by the phenol chloroform extraction method (Chomczynski and Sacchi, 1987). Total cellular RNA was reverse-transcribed using oligo dT primers according to the manufacturer's protocols (Promega) and quantitated by competitive PCR. Primers and mimic DNA specific for glyceraldehyde-3-phosphate dehydrogenase (G3PDH), IL-4 and TGF-β1 were obtained from Clontech Laboratories, Inc. (Palo Alto, Calif.) (Siebert and Larrick, 1992; Siebert and Larrick, 1993). Competitive cDNA mimics which included the G3PDH, IL-4 and TGF-β1 primer sequences adjoining a neutral DNA segment, were serially diluted and added to test cDNA aliquots (Siebert and Larrick, 1992; Siebert and Larrick, 1993). The authentic product to mimic bp sizes were 983/600 for G3PDH, 306/544 for IL-4, and 525/390 for TGF-β1. The mixture was amplified under predetermined optimal conditions and the products were resolved by 1.5% agarose gel electrophoresis and ethidium bromide stained. […] The mimic DNA dilution that yielded a band with a fluorescence intensity that matched the cytokine band was used to calculate cytokine cDNA copy number. The G3PDH transcript quantitation served as a control for reverse transcription efficiency. […]"}, "TGF-β1 mRNA [3]": {"system": "TGF-β1 mRNA", "test": "TGF-β1 transcript analysis in LN by quantitative competitive PCR", "assay_type": "in vivo", "conditions": "male mice with EAE, 100 ng daily, regardless of dietary calcium and number of cells in the LN", "experimental": "as §1"}, "experimental arthritis": {"system": "experimental arthritis", "conditions": "literature (Cantorna 1998a); cited from earlier work"}, "[4]": {"system": "lymphocytes in the draining LN", "conditions": "in vivo treatments, literature (Cantorna 1998b); cited from earlier work"}, "G3PDH mRNA": {"system": "G3PDH mRNA", "test": "G3PDH transcript analysis in LN by quantitative competitive PCR", "assay_type": "in vivo", "conditions": "LN of male mice with EAE, 100 ng daily", "experimental": "as §1"}, "IL-4 mRNA [5]": {"system": "IL-4 mRNA", "conditions": "in vivo treatments, literature (Cantorna 1998b); cited from earlier work"}, "[6]": {"test": "Body weight at end of the 50 d experiment", "assay_type": "in vivo", "conditions": "male mice, end of 50 d experiment, mean ± SD", "from_the_text": "(§2) Animals and Diets. The B10.PL mice were produced in our colony using breeding pairs obtained from Jackson Laboratories (Bar Harbor, Me.). During breeding, the mice were fed Purina diet 5008 Formilab (Richmond, Ind.), containing 100 IU/g of cholecalciferol (vitamin D3). Mice were used for experiments at 6-8 wk of age at which time the females were 18-22 g and the males were 22-26 g. For experiments, all of the mice were fed synthetic diets (Yang, et al., 1993; Smith, et al., 1987) with the modifications described below. For all experiments each mouse was fed 4 g of the experimental diet (completely eaten) and the diets were replaced every 2-3 days for the duration of each experiment. […] Although the experimental diet was devoid of vitamin D, the mice were exposed to normal light and, therefore, were not vitamin D deficient. EAE was induced in all mice one week after the experimental diets were started. For mice with severe symptoms of EAE, food was placed in small dishes on the bottom of the cage. At the end of the experiments, mice were weighed, killed, and bled."}, "IFN-γ": {"system": "IFN-γ", "conditions": "in vivo treatments, literature (Cantorna 1998b); cited from earlier work"}, "TGF-β1 mRNA [7]": {"system": "TGF-β1 mRNA", "conditions": "in vivo treatments, literature (Cantorna 1998b); cited from earlier work"}, "[8]": {"test": "Serum calcium by atomic absorption spectrometry", "assay_type": "in vivo, mice", "conditions": "high dietary calcium, at EAE-preventing doses (6 ng/d females, 100 ng/d males)", "experimental": "Serum calcium and 1,25-(OH)2D3 analysis. After 50 days the mice were killed, blood was collected by heart puncture and serum was collected following clot formation. Serum calcium concentrations were determined using a Perkin Elmer atomic absorption spectrometer exactly as described (Mohamed, et al., 1995). 1,25-(OH)2D3 analysis was done exactly as described (Arbour, et al., 1996)."}, "TNF-α": {"system": "TNF-α", "conditions": "in vivo treatments, literature (Cantorna 1998b); cited from earlier work"}, "LN cells": {"system": "LN cells", "test": "Flow cytometry of LN cell populations (Thy-1, CD4, CD8)", "assay_type": "in vivo, mice", "conditions": "regardless of dietary calcium or 1,25-(OH)2D3 treatment", "experimental": "(§3) Lymphocytes. Axillary, brachial and inguinal lymph nodes (LN) from 6 mice were collected and pooled from control and 1,25-(OH)2D3 treated mice on d 21 post-immunization. Each experiment was repeated 3 times in its entirety. These LNs were chosen because they drained the site of immunization. Collected LN were disrupted manually using a 23 g needle and a pair of forceps. Total cell numbers in the LN were determined by counting the number of lymphocytes from control- and 1,25-(OH)2D3 treated mice and dividing by the number of mice in the group. Flow cytometry of fluorescent-labeled cell populations (Thy-1, class II, CD4 and CD8) were done on LN cells from control- and 1,25-(OH)2D3-treated mice using standard protocols and exactly as described (Smith, et al., 1987). For cytokine PCR analysis, LN cells were saved for total cellular RNA isolation."}, "[9]": {"system": "experimental autoimmune encephalomyelitis (EAE) in B10.PL mice", "test": "EAE induction in B10.PL mice fed 1,25-(OH)2D3 and various dietary calcium: EAE incidence and prevention", "assay_type": "in vivo", "conditions": "for prevention of EAE: 20 mg calcium/100 g diet (low); for incidence of EAE: 20 mg calcium/100 g diet, lower doses that do not raise serum calcium; for times more 1,25-(OH)2D3 needed to prevent EAE in males than females: males vs females", "from_the_text": "as §2\nIn the first experimental design, male and female mice were fed diets which contained 1 g calcium/100 g diet and EAE was induced. In a second series of experiments groups of 8-12 mice were fed the experimental diet (control treatment) without vitamin D or the experimental diet plus various concentrations of 1,25-(OH)2D3 as indicated. Females were fed 1,25-(OH)2D3 ranging from 0 to 200 ng/d and the males were fed 0 to 800 ng/d. The experimental diet contained one of 3 calcium concentrations; 20 mg (low), 470 mg (medium) or 1 g (high) calcium/100 g diet as indicated. The final experimental design used only male which were fed the control diet or the same diet containing 100 ng 1,25-(OH)2D3/daily. These mice were fed diets, which contained low, medium, or high calcium as indicated. […] All of the procedures described were reviewed and approved by the University of Wisconsin-Madison Research Animal Resources Center Committee Review Board on Sep. 9, 1994 and the protocol number is A-07-3000-A00755-4-08-94.\nEAE disease induction. Myelin basic protein (MBP) was isolated from guinea pig spinal cords (Cantorna, et al., 1996). MBP was lyophilized and stored at −20° C. For immunizations, MBP was dissolved in 0.1 mol/L acetic acid at a concentration of 8 g/L (Cantorna, et al., 1996). Ether anesthetized mice were immunized subcutaneously with 0.1 ml of MBP ([…]) emulsified in an equal volume of Complete Freund's Adjuvant (CFA, Difco Laboratories, Detroit, Mich.) containing Mycobacterium tuberculosis H37 Ra. In addition, on the day of immunization and two days later mice were injected i.p. with 200 ng of pertussis toxin (LIST Biological Laboratories, Campbell, Calif.) suspended in sterile saline. […] Male mice were killed on d 21 post-immunization to measure various immune responses. The EAE scoring system was: 0=normal; 1=limp tail; 2=paraparesis with a clumsy gait; 3=hind limb paralysis; 4=hind and fore limb paralysis; 5=moribund."}, "[10]": {"system": "lymphocytes in the draining LN", "test": "Total cell numbers in the draining lymph nodes of mice with EAE", "assay_type": "in vivo", "conditions": "male mice with EAE, 100 ng daily, d 21 post-immunization", "experimental": "as §3"}},
  "data": [
    {"compound": "C=C1/C(=C\\C=C2/CCC[C@]3(C)[C@@H]([C@H](C)CCCC(C)(C)O)CC[C@@H]23)C[C@@H](O)C[C@@H]1O", "note": "[1,25-(OH)2D3, 1α,25-dihydroxyvitamin D3]", "values": [
      {"measurement": "development of EAE", "setting": "[1]", "result": "prevent the development of EAE"},
      {"measurement": "transplant rejection", "setting": "transplant rejection", "result": "markedly inhibit transplant rejection"},
      {"measurement": "IL4 production (mRNA in LN)", "setting": "IL-4 mRNA [2]; low calcium diets", "result": "not different from controls"},
      {"measurement": "amount of IL-4 produced (mRNA in LN)", "setting": "IL-4 mRNA [2]; medium to high calcium diets", "result": "increased as the calcium in the diet increased"},
      {"measurement": "TGF-β1 mRNA expression in LN", "setting": "TGF-β1 mRNA [3]", "result": "high levels of TGF-β1"},
      {"measurement": "development of experimental arthritis", "setting": "experimental arthritis", "result": "prevent"},
      {"measurement": "total number of lymphocytes", "setting": "[4]", "result": "net loss"},
      {"measurement": "G3PDH mRNA expression", "setting": "G3PDH mRNA", "result": "no effect"},
      {"measurement": "expression of IL-4", "setting": "IL-4 mRNA [5]", "result": "net increase"},
      {"measurement": "Weight", "setting": "[6]; dietary calcium 20 mg/100 g, high dose 800 ng/day", "result": "13 ± 3", "unit": "g"},
      {"measurement": "Weight", "setting": "[6]; dietary calcium 20 mg/100 g, intermediate dose 40-500 ng/d", "result": "27 ± 2", "unit": "g"},
      {"measurement": "Weight", "setting": "[6]; dietary calcium 470 mg/100 g, high dose 400 ng/day", "result": "17 ± 3", "unit": "g"},
      {"measurement": "Weight", "setting": "[6]; dietary calcium 470 mg/100 g, intermediate dose 50-200 ng/d", "result": "23 ± 2", "unit": "g"},
      {"measurement": "Weight", "setting": "[6]; dietary calcium 1 g/100 g, high dose 100-400 ng/day", "result": "15 ± 1", "unit": "g"},
      {"measurement": "Weight", "setting": "[6]; dietary calcium 1 g/100 g, intermediate dose 10-50 ng/d", "result": "25 ± 2", "unit": "g"},
      {"measurement": "IFN-γ expression", "setting": "IFN-γ", "result": "no effect"},
      {"measurement": "expression of TGF-β1", "setting": "TGF-β1 mRNA [7]", "result": "net increase"},
      {"measurement": "serum calcium", "setting": "[8]", "result": "elevated"},
      {"measurement": "TNF-α expression", "setting": "TNF-α", "result": "no effect"},
      {"measurement": "CD4+ cells", "setting": "LN cells", "result": "40-44 % of the LN"},
      {"measurement": "CD8+ cells", "setting": "LN cells", "result": "18-21 % of the LN"},
      {"measurement": "Thy-1 positive cells", "setting": "LN cells", "result": "52-57 % of the LN"},
      {"measurement": "reduction of the incidence of EAE", "setting": "[9]; calcium removed from the diet", "result": 50, "unit": "%"},
      {"measurement": "effectiveness in preventing EAE", "setting": "[9]; diet containing high calcium, appropriate doses", "result": 100, "unit": "%"},
      {"measurement": "prevention of EAE", "setting": "[9]; females, at 200 ng/d", "result": "never completely prevented"},
      {"measurement": "incidence of EAE", "setting": "[9]; females", "result": 45, "unit": "%"},
      {"measurement": "dose at which EAE was completely prevented", "setting": "[9]; females, 470 mg calcium/100 g diet (medium)", "result": 200, "unit": "ng/day"},
      {"measurement": "dose at which EAE was completely prevented", "setting": "[9]; females, 1 g calcium/100 g diet (high)", "result": 6, "unit": "ng/day"},
      {"measurement": "drop in EAE incidence compared to mice not treated", "setting": "[9]; low calcium diets, males and females", "result": "40-45%"},
      {"measurement": "times more 1,25-(OH)2D3 needed to prevent EAE in males than females", "setting": "[9]; high calcium intakes", "result": 17, "unit": "times"},
      {"measurement": "times more 1,25-(OH)2D3 needed to prevent EAE in males than females", "setting": "[9]; overall", "result": "at least 4 times"},
      {"measurement": "prevention of EAE", "setting": "[9]; males, at 800 ng/d", "result": "never completely prevented"},
      {"measurement": "incidence of EAE", "setting": "[9]; males", "result": 30, "unit": "%"},
      {"measurement": "dose at which EAE was completely prevented", "setting": "[9]; males, 470 mg calcium/100 g diet (medium)", "result": 400, "unit": "ng/day"},
      {"measurement": "dose at which EAE was completely prevented", "setting": "[9]; males, 1 g calcium/100 g diet (high)", "result": 100, "unit": "ng/day"},
      {"measurement": "overall symptoms of EAE (day of onset, paralysis scores)", "setting": "[9]; treated mice, as the incidence dropped (data not shown)", "result": "decreased"},
      {"measurement": "total number of cells in the LN", "setting": "[10]; low calcium diets", "result": "the same as controls"},
      {"measurement": "total number of cells in the LN", "setting": "[10]; with addition of calcium to the diet", "result": "decreased dramatically"}
    ]}
  ]
}
